Numbers after ± are expanded uncertainties.
Conditions: 298.15 K, 101.33 kPa, Liquid; for viscosity: Capillary tube (Ostwald / Ubbelohde) method; for speed of sound: Sing-around technique in a fixed-path interferometer

| mass density | viscosity | speed of sound | Structure (SMILES) |
| --- | --- | --- | --- |
| 798.104 ± 1 kg/m3 | 3.307 ± 0.025 mPa·s | 1188.8 ± 1.3 m/s | CC(C)CO [2-methyl-1-propanol] |
| 805.953 ± 0.47 kg/m3 | 2.565 ± 0.016 mPa·s | 1241.1 ± 1 m/s | CCCCO [butan-1-ol] |
| 892.389 ± 0.75 kg/m3 | 1.405 ± 0.012 mPa·s | 1671.6 ± 1.4 m/s | NCCN [ethane-1,2-diamine] |
| 781.051 ± 0.51 kg/m3 | 2.063 ± 0.013 mPa·s | 1140.4 ± 0.9 m/s | CC(C)O [propan-2-ol] |
